Assay results: the supplement of paper PMC8882468

Columns and labels:
Assay in all cases: CTG-3D luminescence at 96 h relative to day-0 seeding control (ratio to day 0); higher = more growth / less cytotoxicity; PDxO 3D drug screen, 96 h, CTG-3D normalised to day-0 seeding control.
HCI-005.E2 = system: HCI-005.E2 (organoid from a breast cancer xenograft with a HER2-positive history)
HCI-001 = system: HCI-001 (organoid from a triple-negative breast cancer xenograft)
HCI-016 = system: HCI-016 (organoid from a triple-negative breast cancer xenograft)

CCN(c1cc(C#CCN2CCOCC2)cc(C(=O)NCc2c(C)cc(C)[nH]c2=O)c1C)[C@H]1CC[C@H](N(C)CCOC)CC1
HCI-005.E2
Conditions | CTG-3D luminescence at 96 h
12.5 pM | 1.1
0.00025 µM | 1.52
0.005 µM | 1.38
0.1 µM | 1.82
1 µM | 1.14
10 µM | 1.22
100 µM | 1.29
625 fM | 1.34

CTG-3D luminescence at 96 h
Conditions | 12.5 pM | 0.00025 µM | 0.005 µM | 0.1 µM | 1 µM | 10 µM | 100 µM | 625 fM
HCI-001, days in culture: 240 | 1.66 | 1.2 | 1.34 | 1.12 | 1.48 | 1.35 | 1.6 | 1.15
HCI-001, days in culture: 260 | 2.3 | 1.19 | 2.11 | 1.83 | 1.85 | 1.89 | 1.19 | 1.77
HCI-001, days in culture: 269 | 1.6 | 1.57 | 1.22 | 1.27 | 1.24 | 1.91 | 1.29 | 1.58
HCI-001, days in culture: 327 | 2.1 | 1.96 | 2.09 | 1.94 | 1.79 | 1.53 | 2.14 | 2.05
HCI-001, days in culture: 346 | 1.71 | 1.33 | 1.21 | 1.4 | 1.5 | 1.62 | 1 | 1.32
HCI-001, days in culture: 364 | 1.74 | 1.34 | 1.76 | 1.19 | 1.17 | 1.85 | 1.41 | 1.88
HCI-016, days in culture: 153 | 2.92 | 1.14 | – | – | – | – | – | –
HCI-016, days in culture: 172 | 2.13 | 2.17 | – | – | – | – | – | –
HCI-016, days in culture: 190 | 2.02 | 1.67 | – | – | – | – | – | –
HCI-016, days in culture: 199 | 1.74 | 2.22 | – | – | – | – | – | –
